The source of these data is ChEMBL document CHEMBL3272043, “Isoxazole anthelmintics” (1977).

Active and inactive are the calls of the source. The calls are words filed in the database; no cut-off is given here.

The first test has as its system Nippostrongylus brasiliensis. The experiment in a line: Anthelmintic activity against Nippostrongylus brasiliensisin in parasitized po dosed albino rat assessed as dose required to 75 % clearance relative to untreated control. The format is functional. The conditions noted are these: read-out: MED.
Consider `CSc1cc(-c2ccccc2)no1`, for which the minimal effective dose was 31 mg/kg.

Regarding `Clc1ccc(-c2cc(Cl)no2)c(Cl)c1`, the minimal effective dose worked out at 62 mg/kg.

Regarding `Clc1ccc(-c2cc(Br)no2)cc1`, the minimal effective dose stood at 250 mg/kg. Same read-out and setting: the figure for `Clc1cc(-c2ccccc2)no1` is 16 mg/kg; for `CN(C)c1cc(-c2ccccc2)no1` it is 125 mg/kg.

Regarding `Clc1cc(-c2ccccc2)on1`, the minimal effective dose is 31 mg/kg. On the same count and under the same terms, then `Ic1cc(-c2ccccc2)on1`, with 250 mg/kg.

Consider `c1ccc(-c2cc(N3CCOCC3)on2)cc1`, for which the minimal effective dose turned out to be 500 mg/kg. Turning to `Brc1cc(-c2ccccc2)on1`, the minimal effective dose came out at 31 mg/kg. Regarding `Clc1ccc(-c2cc(Cl)no2)cc1`, the minimal effective dose is 62 mg/kg. Take `Brc1cc(-c2ccccc2)no1`: the minimal effective dose came to 16 mg/kg. For the compound `Clc1cc(-c2cccs2)on1`, the minimal effective dose stood at 250 mg/kg. Same read-out and setting: the figure for `COc1cc(-c2ccccc2)no1` is 31 mg/kg; for `CCSc1cc(-c2ccccc2)no1` it is 125 mg/kg. Turning to `CCOc1cc(-c2ccccc2)no1`, the minimal effective dose was determined as 31 mg/kg. On the same count and under the same terms, then `Clc1noc(-c2ccccc2)c1Cl`, with 31 mg/kg. In the case of `Clc1cc(-c2ccc(Cl)c(Cl)c2)on1`, the minimal effective dose came to 250 mg/kg. Same read-out and setting: then `Cc1ccc(-c2cc(Cl)no2)cc1`, with 500 mg/kg; and `C=CCCCOc1cc(-c2ccccc2)no1`, with 125 mg/kg.

The next test has as its system Nippostrongylus brasiliensis. The experiment in a line: Anthelmintic activity against Nippostrongylus brasiliensisin in parasitized albino rat assessed as dose required to 75 % clearance at 500 mg/kg, po relative to untreated control.
Conditions: not given
The arrangement: dose 500 mg/kg. The format is functional, organism-based.
Turning to `COc1onc(-c2ccccc2)c1Cl`, the result was inactive. Same read-out and setting: then `COC(=O)Nc1cc(-c2ccccc2)on1`, with “inactive”; and `CNC(=O)Nc1cc(-c2ccccc2)on1`, with “inactive”; and `c1ccc(-c2ccon2)cc1`, with “inactive”.

Regarding `Nc1cc(-c2ccccc2)on1`, the outcome was inactive.

With `CS(=O)(=O)c1cc(-c2ccccc2)no1`, the outcome was inactive. Still for that read-out and setting: then `CSc1onc(-c2ccccc2)c1Cl`, with “inactive”; and `Clc1onc(-c2ccccc2)c1Cl`, with “inactive”.

For `c1ccc(CSc2cc(-c3ccccc3)no2)cc1`, the result was inactive. On the same count and under the same terms, the entry for `O=C(CC[N+](=O)[O-])c1ccc(Cl)cc1Cl` is “inactive”.

Take `CS(=O)(=O)Oc1cc(-c2ccccc2)on1`: the outcome was inactive. On the same count and under the same terms, then `Nc1noc(-c2ccccc2)c1Cl`, with “inactive”. `C=CCc1c(-c2ccccc2)noc1Cl`: the result was inactive. With `Cc1ccc(C(=O)CC[N+](=O)[O-])cc1`, the outcome was inactive. `Clc1ccc(-c2ccno2)cc1`: the result was inactive. The same measure, in the same setting: then `Nc1noc(-c2ccccc2)c1Br`, with “inactive”; and `O=[N+]([O-])c1ccc(-c2cc(Cl)no2)cc1`, with “inactive”; and `Oc1cc(-c2ccc(Cl)cc2)on1`, with “inactive”.

Consider `O=C(Nc1cc(-c2ccccc2)on1)C(F)(F)F`, for which the outcome was inactive. In the case of `FC(F)(F)c1cc(-c2ccccc2)no1`, the result was inactive. The same measure, in the same setting: then `C[S+]([O-])c1cc(-c2ccccc2)no1` (stereo not drawn), with “inactive”; and `FC(F)(F)c1cc(-c2ccccc2)on1`, with “inactive”; and `O=[N+]([O-])c1cc(-c2cc(Cl)no2)ccc1Cl`, with “inactive”. On the same count and under the same terms, then `O=C(CC[N+](=O)[O-])c1cccs1`, with “inactive”; and `O=C(CC[N+](=O)[O-])c1ccc(Cl)cc1`, with “inactive”. The same measure, in the same setting: then `O=C(Nc1noc(-c2ccccc2)c1Cl)C(F)(F)F`, with “inactive”; and `CCSCCOc1cc(-c2ccccc2)no1`, with “inactive”; and `O=C(CC[N+](=O)[O-])c1ccc(Cl)c(Cl)c1`, with “inactive”. As to `O=C(CC[N+](=O)[O-])c1ccccc1`, the result was inactive.
